Results reported in US10077261B2, “Imidazolin-5-one derivative useful as FASN inhibitors for the treatment of cancer” (Janssen Pharmaceutica NV, priority 2012, dated 2018).

Columns and labels:
[1] = tested on: A2780 ovarian cells; test: A2780 ovarian cell proliferation assay in lipid reduced medium, with palmitate (MTT); assay type: cell-based; conditions: Homo sapiens, A2780, 96 h; read-out: pIC50 A2780 Ovarian Cell, With Palmitate (converted)
In short: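 Seeded cells were switched next day to lipid-reduced serum, exposed to compound and 25 μM palmitate complexed with fatty-acid-free BSA, and incubated 96 h. Proliferation was then determined by MTT absorbance at 544 nm, with a best-fit curve of signal against concentration.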

[2] = target: Fatty Acid Synthase Keto-reductase Domain (FASN KR) (Homo sapiens, UniProt P49327); test: Fatty Acid Synthase keto-reductase domain (FASN KR) inhibition, NADPH oxidation at 340 nm
Chain of Fatty Acid Synthase Keto-reductase Domain (FASN KR) (P49327 whole entry, the tested form may be a part): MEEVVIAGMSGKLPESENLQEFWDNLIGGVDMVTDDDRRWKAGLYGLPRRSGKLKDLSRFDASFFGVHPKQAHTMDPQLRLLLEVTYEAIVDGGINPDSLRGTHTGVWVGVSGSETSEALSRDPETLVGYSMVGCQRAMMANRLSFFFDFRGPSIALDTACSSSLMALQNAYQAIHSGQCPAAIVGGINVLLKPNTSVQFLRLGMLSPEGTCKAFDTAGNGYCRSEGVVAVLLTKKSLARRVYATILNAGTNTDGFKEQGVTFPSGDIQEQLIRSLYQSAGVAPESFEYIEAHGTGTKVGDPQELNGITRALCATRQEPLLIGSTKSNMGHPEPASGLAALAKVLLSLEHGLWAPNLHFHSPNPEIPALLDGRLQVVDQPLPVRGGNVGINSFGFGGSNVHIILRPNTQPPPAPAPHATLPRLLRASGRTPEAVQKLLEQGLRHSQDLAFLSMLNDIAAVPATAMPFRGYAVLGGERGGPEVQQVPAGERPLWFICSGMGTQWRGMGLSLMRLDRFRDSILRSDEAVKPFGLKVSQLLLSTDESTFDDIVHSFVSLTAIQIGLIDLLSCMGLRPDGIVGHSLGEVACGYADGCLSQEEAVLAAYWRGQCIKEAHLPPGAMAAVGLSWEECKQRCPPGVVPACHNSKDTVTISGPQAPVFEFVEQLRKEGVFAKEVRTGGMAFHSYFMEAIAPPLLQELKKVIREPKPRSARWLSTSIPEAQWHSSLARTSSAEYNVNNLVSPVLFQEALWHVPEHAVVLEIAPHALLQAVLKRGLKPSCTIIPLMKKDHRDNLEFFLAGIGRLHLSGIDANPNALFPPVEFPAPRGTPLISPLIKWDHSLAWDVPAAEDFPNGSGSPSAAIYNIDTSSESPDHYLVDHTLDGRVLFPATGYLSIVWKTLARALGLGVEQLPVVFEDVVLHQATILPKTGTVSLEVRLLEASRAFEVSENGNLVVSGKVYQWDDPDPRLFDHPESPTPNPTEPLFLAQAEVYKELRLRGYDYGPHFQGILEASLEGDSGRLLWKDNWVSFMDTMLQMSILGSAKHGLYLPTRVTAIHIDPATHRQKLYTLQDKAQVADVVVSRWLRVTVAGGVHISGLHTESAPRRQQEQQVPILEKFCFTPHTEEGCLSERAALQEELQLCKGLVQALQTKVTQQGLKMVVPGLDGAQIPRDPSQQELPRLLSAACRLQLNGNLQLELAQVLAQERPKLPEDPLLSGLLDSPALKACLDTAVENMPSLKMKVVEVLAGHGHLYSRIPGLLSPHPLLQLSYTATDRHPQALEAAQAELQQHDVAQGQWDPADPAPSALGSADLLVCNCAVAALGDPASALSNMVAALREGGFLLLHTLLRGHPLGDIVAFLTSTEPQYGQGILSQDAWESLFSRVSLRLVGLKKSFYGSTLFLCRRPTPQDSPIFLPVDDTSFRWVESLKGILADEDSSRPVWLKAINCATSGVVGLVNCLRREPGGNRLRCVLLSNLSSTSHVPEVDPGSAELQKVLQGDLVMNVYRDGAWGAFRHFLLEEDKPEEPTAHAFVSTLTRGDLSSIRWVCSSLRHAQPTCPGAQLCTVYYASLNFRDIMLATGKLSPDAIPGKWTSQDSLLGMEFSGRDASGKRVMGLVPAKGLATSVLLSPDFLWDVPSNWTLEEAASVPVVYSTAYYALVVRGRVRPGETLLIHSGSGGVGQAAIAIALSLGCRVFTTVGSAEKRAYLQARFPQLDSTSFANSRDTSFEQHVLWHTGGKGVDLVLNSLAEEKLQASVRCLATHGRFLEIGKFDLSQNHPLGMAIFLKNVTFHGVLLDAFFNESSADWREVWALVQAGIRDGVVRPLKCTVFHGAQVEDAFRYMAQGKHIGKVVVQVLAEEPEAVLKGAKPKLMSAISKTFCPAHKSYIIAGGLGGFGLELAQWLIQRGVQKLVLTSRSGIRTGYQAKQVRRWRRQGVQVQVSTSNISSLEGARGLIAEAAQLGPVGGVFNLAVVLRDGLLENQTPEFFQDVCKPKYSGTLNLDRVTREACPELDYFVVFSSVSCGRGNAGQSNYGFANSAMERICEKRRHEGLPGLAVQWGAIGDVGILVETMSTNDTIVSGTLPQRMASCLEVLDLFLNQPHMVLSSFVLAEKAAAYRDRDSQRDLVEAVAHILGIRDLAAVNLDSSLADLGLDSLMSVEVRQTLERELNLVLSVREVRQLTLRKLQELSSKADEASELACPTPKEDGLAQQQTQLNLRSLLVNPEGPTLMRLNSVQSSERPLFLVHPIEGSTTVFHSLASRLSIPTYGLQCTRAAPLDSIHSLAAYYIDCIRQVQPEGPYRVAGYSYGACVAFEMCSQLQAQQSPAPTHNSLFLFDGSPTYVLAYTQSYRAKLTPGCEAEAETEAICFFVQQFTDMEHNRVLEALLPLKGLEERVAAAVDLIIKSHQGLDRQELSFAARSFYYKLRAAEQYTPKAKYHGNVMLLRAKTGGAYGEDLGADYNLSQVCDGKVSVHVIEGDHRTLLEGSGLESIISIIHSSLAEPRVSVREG
Method: After 20 minutes incubation at room temperature the plate was measured again (T2).
The decrease in absorbance was calculated as (Absorbance before incubation T1)−(Absorbance following incubation T2).
A plot of Controlmin versus test compound concentration was fitted to a 4-parameter logistic curve using a non-linear least squares regression method.

[3] = tested on: A2780 ovarian cells; test: A2780 ovarian cell proliferation assay in lipid reduced medium, without palmitate (MTT); assay type: cell-based; conditions: Homo sapiens, A2780, 96 h; read-out: pIC50 A2780 Ovarian Cell, Without Palmitate (converted)
[4] = target: T1, hFASN enzyme (full length) (Homo sapiens, UniProt P49327); test: Fatty Acid Synthase (FASN) inhibition scintillation proximity assay; assay type: biochemical; conditions: for inhibition at 10 µM: read-out: Human FASN % inhibition @ 10 μM, 10 μM test compound; for IC50: read-out: Human FASN pIC50 (converted)
T1 construct: 10 μL hFASN enzyme (full length, 300 ng, purified in house); made in house
T1 sequence (P49327 whole entry): as the sequence (P49327 whole entry, the tested form may be a part) above
In short: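 Purified full-length hFASN (300 ng) converts ^3H-acetyl-CoA plus malonyl-CoA to ^3H-palmitate in 100 mM KH2PO4 pH 7.5, 1 mM DTT; compounds tested at 0.01–30 μM. Product captured on streptavidin imaging beads and read by LEADseeker at 610 nm after ≥24 h; 4-parameter logistic fit versus controls.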

IC50 [1]	IC50 [2]	IC50 [3]	inhibition at 10 µM [4]	IC50 [4]	Structure (SMILES)
> 10 µM	0.759 µM	~3.24 µM	103%	0.219 µM	Cc1cc2cc(-c3ccc(C4=NC5(CC5)C(=O)N4C[C@@H]4CCN(C(=O)C5CC5)C4)cc3F)ccc2o1 [compound 387, 6-{[(3R)-1-(Cyclopropylcarbonyl)pyrrolidin-3-yl]methyl}-5-[3-fluoro-4-(2-methyl-1-benzofuran-5-yl)phenyl]-4,6-diazaspiro[2.4]hept-4-en-7-one]
> 10 µM	1.1 µM	~2.45 µM	99%	0.355 µM	Cc1cc2cc(-c3ccc(C4=NC5(CC5)C(=O)N4C[C@@H]4CCN(C(=O)C5CC5)C4)cc3C)ccc2o1 [compound 388, 6-{[(3R)-1-(Cyclopropylcarbonyl)pyrrolidin-3-yl]methyl}-5-[3-methyl-4-(2-methyl-1-benzofuran-5-yl)phenyl]-4,6-diazaspiro[2.4]hept-4-en-7-one]
> 10 µM	0.49 µM	1.1 µM	97%	0.178 µM	O=C(C1CC1)N1CC(CN2C(=O)C3(CC3)N=C2c2ccc(-c3ccc4sccc4c3)c(F)c2)C1 [compound 404, 5-[4-(1-Benzothiophen-5-yl)-3-fluorophenyl]-6-{[1-(cyclopropylcarbonyl)azetidin-3-yl]methyl}-4,6-diazaspiro[2.4]hept-4-en-7-one]
~10 µM	0.331 µM	0.132 µM	99%	0.17 µM	O=C(C1CC1)N1CC[C@@H](CN2C(=O)C3(CC3)N=C2c2ccc(-c3nc4ccccc4[nH]3)cc2F)C1 [compound 538, 5-[4-(1H-Benzimidazol-2-yl)-2-fluorophenyl]-6-{[(3R)-1-(cyclopropylcarbonyl)pyrrolidin-3-yl]methyl}-4,6-diazaspiro[2.4]hept-4-en-7-one]
> 10 µM	1.17 µM	~0.676 µM	93%	0.603 µM	COCc1nn(C)c2ccc(-c3ccc(C4=NC5(CC5)C(=O)N4CC4CN(C(=O)C5CC5)C4)c(C)c3)cc12 [compound 588, 6-{[1-(Cyclopropylcarbonyl)azetidin-3-yl]methyl}-5-{4-[3-(methoxymethyl)-1-methyl-1H-indazol-5-yl]-2-methylphenyl}-4,6-diazaspiro[2.4]hept-4-en-7-one]
> 10 µM	1.02 µM	0.372 µM	98%	0.148 µM	COCc1nn(C)c2ccc(-c3ccc(C4=NC5(CC5)C(=O)N4CC4CN(C(=O)C5CC5)C4)c(F)c3)cc12 [compound 608, 6-{[1-(Cyclopropylcarbonyl)azetidin-3-yl]methyl}-5-{2-fluoro-4-[3-(methoxymethyl)-1-methyl-01H-indazol-5-yl]phenyl}-4,6-diazaspiro[2.4]hept-4-en-7-one]
> 10 µM	1.58 µM	2.09 µM	90%	0.708 µM	CC(C)N1CCC2(CC1)N=C(c1ccc(-c3ccc4[nH]ncc4c3)cc1)N(C[C@@H]1CCN(C(=O)C3CC3)C1)C2=O [compound 743, 3-{[(3R)-1-(Cyclopropylcarbonyl)pyrrolidin-3-yl]methyl}-2-[4-(1H-indazol-5-yl)phenyl]-8-(1-methylethyl)-1,3,8-triazaspiro[4.5]dec-1-en-4-one]
> 10 µM	0.646 µM	~0.245 µM	107%	0.135 µM	CC(C)C(=O)N1CCC2(CC1)N=C(c1ccc(-c3ccc4[nH]ccc4c3)cc1)N(CC1CN(C(=O)C3CC3)C1)C2=O [compound 753, 3-{[1-(Cyclopropylcarbonyl)azetidin-3-yl]methyl}-2-[4-(1H-indol-5-yl)phenyl]-8-(2-methylpropanoyl)-1,3,8-triazaspiro[4.5]dec-1-en-4-one]
> 6.17 µM	0.631 µM	~0.316 µM	107%	0.229 µM	COCCN1CCC2(CC1)N=C(c1ccc(-c3ccc4[nH]ccc4c3)cc1)N(CC1CN(C(=O)C3CC3)C1)C2=O [compound 755, 3-{[1-(Cyclopropylcarbonyl)azetidin-3-yl]methyl}-2-[4-(1H-indol-5-yl)phenyl]-8-triazaspiro[4.5]dec-1-en-4-one]
> 10 µM	1 µM	0.708 µM	104%	0.158 µM	O=C(C1CC1)N1CC(CN2C(=O)C3(CCN(CCO)CC3)N=C2c2ccc(-c3ccc4[nH]ccc4c3)cc2)C1 [compound 757, 3-{[1-(Cyclopropylcarbonyl)azetidin-3-yl]methyl}-8-(2-hydroxyethyl)-2-[4-(1H-indol-5-yl)phenyl]-1,3,8-triazaspiro[4.5]dec-1-en-4-one]
> 10 µM	0.0251 µM	0.011 µM	106%	0.02 µM	O=C(C1CC1)N1CC[C@@H](CN2C(=O)C3(CCCC3)N=C2c2ccc(-c3ccc4[nH]ccc4c3)cc2F)C1 [compound 845, (R)-3-((1-(cyclopropanecarbonyl)pyrrolidin-3-yl)methyl)-2-(2-fluoro-4-(1H-dinol-5-yl)phenyl)-1,3-diazaspiro[4.4]non-1-en-4-one]
> 10 µM	0.0407 µM	0.0209 µM	108%	0.0251 µM	O=C(C1CC1)N1CC[C@@H](CN2C(=O)C3(CCCC3)N=C2c2ccc(-c3ccc4cc[nH]c4c3)cc2F)C1 [compound 874, (R)-3-((1-(cyclopropanecarbonyl)pyrrolidin-3-yl)methyl)-2-(2-fluoro-4-(1H-indol-6-yl)phenyl)-1,3-diazaspiro[4.4]non-1-en-4-one]
> 10 µM	0.0603 µM	~0.0933 µM	113%	0.0363 µM	O=C(N1CC[C@@H](CN2C(=O)C3(CCCC3)N=C2c2ccc(-c3ccc4occc4c3)cc2)C1)C1(O)CC1 [compound 878, (R)-2-(4-(benzofuran-5-yl)phenyl)-3-((1-(1-hydroxycyclopropanecarbonyl)pyrrolidin-3-yl)methyl)-1,3-diazaspiro[4.4]non-1-en-4-one]
> 10 µM	0.295 µM	~0.0891 µM	107%	0.135 µM	Cc1nnc(-c2ccc(-c3ccc(C4=NC5(CCCC5)C(=O)N4C[C@@H]4CCN(C(=O)C5CC5)C4)c(C)c3)cc2)o1 [compound 882, (R)-3-((1-(cyclopropanecarbonyl)pyrrolidin-3-yl)methyl)-2-(3-methyl-4′-(5-methyl-1,3,4-oxadiazol-2-yl)-[1,1′-biphenyl]-4-yl)-1,3-diazaspiro[4.4]non-1-en-4-one]
> 10 µM	1.05 µM	~2.45 µM	100%	0.269 µM	Cc1cc(-c2ccc3c(c2)OCO3)ccc1C1=NC2(CCCC2)C(=O)N1C[C@@H]1CCN(C(=O)C2CC2)C1 [compound 883, (R)-2-(4-(benzo[d][1,3]dioxol-5-yl)-2-methylphenyl)-3-((1-(cyclopropanecarbonyl)pyrrolidin-3-yl)methyl)-1,3-diazaspiro[4.4]non-1-en-4-one]
